Assay results as given in US11459375B2, “Cyclic peptides for the treatment of Graves' disease” (advanceCOR GmbH, priority 2017, dated 2022).
Peptide text beside a SMILES is read from it.

What was measured:
Ad-TSHR-immunized mice [1] = test: ventricular myocardial volumes from digitized cross-sectional LV areas; format: in vivo, BALB/c mice; conditions: 1 mg/kg IV 4-weekly, end of experiment
Experimental: In FIG. 7 the effect of the peptide therapy on heart rates at various times during the experiment (A), and on heart weights (B) and cardiac ventricular volumes (C) at the end of the experiment were evaluated in all animals. The measurements were carried out in Ad-TSHR-immunized mice treated by either 4-weekly injections with vehicle (0.9% NaCl, “Graves' no therapy”, n=25 mice), or administrations of 1 mg/kg body weight of peptide of the invention 836 (12 mice), or of peptide 829 (13 mice), or TSHR-Fc (18 mice). In addition, age-matched immunologically naïve unimmunized mice (“healthy”, 19 animals) were investigated. Data are represented as mean±SEM. […]
After euthanasia, dissection of the thyroid glands was performed under a stereomicroscope, as described before (22). […] Thyroid volumes (mm^3) were calculated from the sum of the areas of each section over the whole cutting region. Myocardial volumes (mm^3) were calculated in a similar way as described for thyroid glands from the sum of the areas of each section over whole cutting region (5 to 6 slides, depending on respective size of the hearts). […]

Ad-TSHR-immunized mice [2] = test: anti-TSHR antibody titers in serum of treated Ad-TSHR-immunized mice (3rd generation ELISA, inhibition of M22 binding to TSHR); format: in vivo, BALB/c mice; conditions: 1 mg/kg IV at 4-weekly intervals, after start of therapy despite continuing immunisations
Experimental: The measurements were carried out in Ad-TSHR-immunized mice treated by either 4-weekly injections with vehicle (0.9% NaCl, “Graves' no therapy”, n=25 mice), or administrations of 1 mg/kg body weight of peptide of the invention 836 (12 mice), or of peptide 829 (13 mice), or of TSHR-Fc (18 mice), or of control peptide 835 (13 mice). In addition, age-matched immunologically naïve unimmunized mice (“healthy”, 19 animals) were investigated. Data are represented as mean±SEM. Significance over time was tested by analysis of variance (ANOVA) of groups at given time points, and controlled by ANOVA for repeated measurements within one group, followed by LSD post-hoc testing. *p<0.05, and **p<0.005, compared to the TSHR-immunized group treated with only NaCl (“Graves' no therapy”).
Animals were kept under standard housing conditions (23±2° C., 55±10% RH) in groups of ten animals in GR1800DD cages (Tecniplast®). […] All guidelines for care of animals were respected. Mice received 10^10 plaque-forming units (pfu) of adenovirus carrying the A-subunit of the TSHR gene. […]
Anti-TSHR autoantibody titers and potency of antibodies to stimulate TSHR-dependent cAMP levels in test cells were determined before start of immunisation (basal value), 56 days after first immunisation, 133 days after first immunisation, and 189 days after first immunisation, and at the end of experiment.

[3] = format: physicochemical
From the text: Peptide 836 is a 24-meric cyclic peptide corresponding to the eighth TSHR LRD loop, and peptide 829 (also 24-meric) to the first loop of the TSHR LRD.

Row | Compound | ventricular myocardial volumes (Ad-TSHR-immunized mice [1]) | time course of anti-TSHR antibody titers (Ad-TSHR-immunized mice [2]) | solubility in water [3]
1 | CC[C@H](C)[C@@H]1NC(=O)[C@H](C(C)C)NC(=O)[C@H]([C@@H](C)O)NC(=O)[C@H](CC(C)C)NC(=O)[C@H](Cc2ccc(O)cc2)NC(=O)[C@H](CCCCN)NC(=O)[C@H](CC(N)=O)NC(=O)[C@H](CCCCN)NC(=O)[C@H](CC(N)=O)NC(=O)[C@H](CC(C)C)NC(=O)[C@H](Cc2ccc(O)cc2)NC(=O)[C@H](C(C)C)NC(=O)[C@H](C)NC(=O)[C@H](CC(=O)O)NC(=O)[C@H](CC(C)C)NC(=O)[C@H](CCCCN)NC(=O)[C@H]([C@@H](C)O)NC(=O)CNC(=O)[C@H](CC(N)=O)NC(=O)[C@H](Cc2ccccc2)NC(=O)[C@H](C)NC(=O)[C@H](Cc2ccc(O)cc2)NC(=O)CNC(=O)[C@H](CC(=O)O)NC1=O [peptide 836] (cyclo(GYAFNGTKLDAVYLNKNKYLTVID)) | significantly reduced ventricular myocardial volumes | no trends for further anti-TSHR titer increases after start of therapy | easily soluble in water
2 | SPPCECHQEEDFRVTCKDIQRIPS [peptide 829] | – | – | easily soluble in water
3 | TSHR-Fc: fusion protein: first 289 amino acids of human TSH receptor (A-subunit), GGR linker and Fc portion of human IgG2 | significantly reduced ventricular myocardial volumes | no trends for further anti-TSHR titer increases after start of therapy | –
